This is an account of results in patent US9650405B2, “Modified sophorolipids as oil solubilizing agents” (Polytechnic Institute of New York University, priority 2010, dated 2017).

Some results are limits rather than exact numbers.

Series [1] in a line: Lemon oil solubilization, sonication, droplet size by dynamic light scattering. In kind it is physicochemical. To be noted: for average droplet sizes after one month: lemon oil emulsions; for Emulsion Droplet Size / Emulsion Droplet Size, bottom emulsion layer / Emulsion Droplet Size, top emulsion layer: 1 weight-%. On the procedure:
MSL's used in this example are SL-hexyl ester (16), SL-octyl ester SL (17), and SL-dodecyl ester (18). To test the MSL capacity for lemon oil solubilization, the volume ratio of water to lemon oil, the concentration of surfactant, and the homogenization time (using a sonicator as the means of homogenization) were varied. Concentration of surfactant is calculated on a w/w basis relative to the mass of water being used. To form emulsions, the MSL or other surfactant is first dissolved in the water, oil is added to the solution, and finally the contents of the water/surfactant+oil system is sonicated. Subsequently, the emulsion is allowed to settle for 24 hours at 25° C. before measurements or visual observations are made.
To evaluate the stability of lemon oil solubilization, photographs of emulsions were recorded daily (after the initial 24 hours). Visual observations consisted of assessing solution clarity, extent of creaming and whether oil separation occurs. After selected time periods measurement of emulsion droplet size was performed by dynamic light scattering, which gives an average droplet size in the solution. […] If the emulsion had creamed (separated into two discreet emulsion layers) the average droplet size for each emulsion layer was determined. The results of this study are listed in Table 6, where the first number represents average droplet size in the top emulsion layer and the second represents the average droplet size in the bottom emulsion layer. […] A better performing emulsifier for this study is defined as functioning to form emulsions with smaller average particle size after the aging period.

Series [2] is described as follows: Emulsification of paraffin and rapeseed oil by transalkylidenation MSLs. The conditions noted are these: for change in emulsions during a 6-week aging period: 1 weight % surfactant, water:paraffin oil 1:1 (v/v), FIG. 22. In kind it is physicochemical. The procedure:
Mixtures of oil (paraffin or rapeseed) and water, in a 1:1 volume ratio, were prepared. MSL compounds 39, 40, and 41 at 1 weight % relative to water were each assessed as emulsifiers. Each mixture was agitated for 5 min using a homogenizer. […] This is in contrast to the studies above where sophorolipid esters and amides consisting of one hydrophobic arm formed oil-in-water mixtures. For compound 43 that has relatively more hydrophobic character than MSL compounds 39. 40 and 41, paraffin oil and water (1:1 volume ratio) were combined and MSL compound 43 (2 weight % to water) was then added. The mixture was agitated by a homogenizer for 5 minutes. […] The emulsion was stable during the 3 weeks it was monitored (FIG. 24). […] The cloudy parts are emulsified water, and the continuous phase is the oil. […] Condition: 15% (v/v) of water in rapeseeds oil, 1 weight % (relative to water) of compound 40 were mixed and stirred using a homogenizer for 5 minutes (scale bar: 100 μm).

The nature of series [3]: Emulsion stability based on phase separation. In kind it is physicochemical. The procedure:
The emulsion was obtained by homogenizing the oil and water mixture and was allowed to settle at room temperature for 24 hours. […] Then, this mixture was homogenized at 13,000 rpm for 2 minutes. Thereafter, the resulting emulsion was left unagitated at 25° C. for 24 hours. Surfactants which give a larger emulsion phase are denoted as having higher emulsion effectiveness (Process Safety and Environment protection, 2005, 83, 38-46). […] Thus, unexpectedly, that longer alkyl chains, at least up to butyl and hexyl, provided improved interfacial stability at the paraffin oil/water interface. […] Apparently, ester bonds of SL-esters are less disruptive to organization at the oil water interface than amide bonds of SL-amides. […] The acidic SL (3) gave an 8% emulsion layer, much lower than the MSL examples given herein. Similarly, the natural SL (1) mixture gave a 10% emulsion layer. This performance is also far below that of SL-butyl amide (24), hexyl amide (25), butyl ester (8) and hexyl ester (16).
After homogenized at 13,000 rpm for 2 minutes, the emulsions were kept at room temperature and separation of the respective oil, emulsion and water layers was recorded for up to 1 month.

The nature of series [4]: Emulsion droplet size distribution, Coulter LS 230 analyzer. The conditions noted are these: paraffin oil-to-water 7:3 v/v, 25° C. In kind it is physicochemical. The procedure:
Emulsified oil droplet size (average and standard deviation) was measured after suitable dilution of the emulsion phase using a Coulter LS 230 analyzer. […] Relative to natural and lactonic SL, selected MSLs show improved properties as emulsifiers on paraffin oil.
After being aged for 3-months, emulsified oil droplet size (average and standard deviation) was measured after suitable dilution of the emulsion phase using a Coulter LS 230 analyzer and the results are listed in Table 5. […] However, increasing the surfactant concentration from 1 to 2% did result in substantially smaller emulsion-phase droplet sizes. […] This is evidence that MSL's can stabilize oil phases greatly decreasing their tendency to undergo coalescence. […] It follows that the results of 3-month aging studies support the utility of selected MSLs for formation and stabilization of oil-in-water emulsions of paraffin oil phases. One skilled in the art would expect that the ability of these MSLs to stabilize paraffin oil phases teaches that they would also stabilize oil phases of similar structure.

The nature of series [5]: Crude oil clearing/displacement activity. The conditions noted are these: 20 μL of 1 mg/mL solution. The procedure: Oil cleaning assays were performed using Louisiana Crude, Arabian Light Crude, and Prudhoe Bay Crude as the oil phase. In one study, the oil clearing/displacement activity of MSLs were assessed using a crude oil layer on top of sea water in order to simulate oil spill type conditions. Sea water (20 mL) was transferred to plastic Petri dishes and 20 μL of a crude oil type was added on top of the water to create an oil layer. Subsequently, a 20 μL aliquot of MSL solution (1 mg/mL) was added dropwise to the top of the oil layer. The instantaneous formation of an oil clearing zone as well as the diameter of the clearing zone was determined as a function of the dispersant used. […] Furthermore, the oil displacement activity of SL-ethyl ester and SL-butyl ester was slightly higher than Triton-X-100 for Arabian Light crude.

Series [6] is described as follows: Crude oil emulsification activity (turbidity at 610 nm). The conditions noted are these: emulsifier 1 mg/mL. The procedure: Emulsification activity was assessed using Louisiana Crude, Arabian Light Crude, and Prudhoe Bay Crude as the oil phase. A 2 mL solution with emulsifier concentration of 1 mg/mL was prepared. A crude oil (10 mg) was added to the emulsifier aqueous solution, the mixture was vortexed for one minute and the emulsified mixture was allowed to stand for 20 minutes. Emulsification activity was determined by measuring turbidity of the emulsion mixture in a spectrophotometer at 610 nm. The results obtained using SL-ethyl ester, SL-butyl ester, the natural sophorolipid mixture and Triton X-100 as emulsifiers are expressed as D610 and are listed in Table 8. […] Furthermore, a remarkable improvement in emulsification activity was obtained for SL-butyl ester relative to the natural sophorolipid mixture. These comparative results for emulsification of Louisiana Crude, Arabian Light Crude, and Prudhoe Bay Crude oil phase could not be anticipated by one skilled in the art.

The mark [7] stands for this setting: lemon oil/water 1/99, sonication 60 sec, 1 Week.
The mark [8] stands for this setting: lemon oil/water 1/99, sonication 60 sec, 5 Weeks.
Setting [9] is: lemon oil/water 5/95, sonication 60 sec, 1 Week.
[10] abbreviates: lemon oil/water 5/95, sonication 60 sec, 5 Weeks.
Where [11] appears, read: oil (paraffin or rapeseed) and water 1:1 volume ratio, 1 weight % relative to water.
[12] abbreviates: paraffin oil and water 1:1 volume ratio, 2 weight % to water.
Setting [13] is: Arabian Light Crude on sea water.
Setting [14] is: lemon oil/water 1/99, sonication 120 sec, 1 Week.

As for `CCCCCCCCOC(=O)CCCCCCCC=CCCCCCCC(C)OC1OC(CO)C(O)C(O)C1OC1OC(CO)C(O)C(O)C1O` (stereo not drawn) [Compound 17, SL-octyl ester], the “average droplet sizes after one month” value in series [1] was “below 1 μm”. Also, the “Emulsion Droplet Size” value amounted to 92 nm in series [1] (setting [7]); 52 nm in series [1] (lemon oil/water 1/99, sonication 60 sec, 2 Days); 183 nm in series [1] (setting [8]); 179 nm in series [1] (setting [9]); 167 nm in series [1] (lemon oil/water 5/95, sonication 60 sec, 2 Days); 325 nm in series [1] (setting [10]).

With `CCCCCCCCCCCCOC(=O)CCCCCCCC=CCCCCCCC(C)OC1OC(CO)C(O)C(O)C1OC1OC(CO)C(O)C(O)C1O` (stereo not drawn) [Compound 18, SL-dodecyl ester], the “average droplet sizes after one month” value in series [1] is recorded as “below 1 μm”. Also, the “Emulsion Droplet Size” value in series [1] (setting [7]) turned out to be 238 nm; in series [1] (setting [8]), 277 nm. Further, the “Emulsion Droplet Size, bottom emulsion layer” value in series [1] (setting [9]) is 327 nm; in series [1] (setting [10]), 208 nm. Also, the “Emulsion Droplet Size, top emulsion layer” value in series [1] (setting [9]) is 389 nm; in series [1] (setting [10]), 551 nm.

Take `COC(=O)/C=C/CCCCCCCC(=O)OC1C(COC(C)=O)OC(OC2C(OC(C)CCCCCC/C=C/C(=O)OC)OC(COC(C)=O)C(O)C2O)C(O)C1O` (stereo not drawn) [Compound 39]: the “change in emulsions during a 6-week aging period” value in series [2] was “no substantial change”. In addition, in series [2] (setting [11]), the emulsion type entry is “water-in-oil emulsions” and the “time the emulsions were stable (monitored period)” value (“time the emulsions were stable” for short) is on record as at least 6 weeks.

Consider `CCOC(=O)/C=C/CCCCCCCC(=O)OC1C(COC(C)=O)OC(OC2C(OC(C)CCCCCC/C=C/C(=O)OCC)OC(COC(C)=O)C(O)C2O)C(O)C1O` (stereo not drawn) [Compound 40], for which the “emulsion stability after 6 weeks” value in series [2] (15% (v/v) of water in rapeseeds oil, 1 weight % relative to water) is on record as “emulsion remained stable”. In series [2] (setting [11]), the emulsion type entry is given as “water-in-oil emulsions” and the “time the emulsions were stable” value is listed as at least 6 weeks.

With `CCCCOC(=O)/C=C/CCCCCCCC(=O)OC1C(COC(C)=O)OC(OC2C(OC(C)CCCCCC/C=C/C(=O)OCCCC)OC(COC(C)=O)C(O)C2O)C(O)C1O` (stereo not drawn) [Compound 41], in series [2] (setting [11]), the emulsion type entry is reported as “water-in-oil emulsions” and the “time the emulsions were stable” value is at least 6 weeks.

For the compound `CCCCCCCCCCCCOC(=O)/C=C/CCCCCCCC(=O)OC1C(COC(C)=O)OC(OC2C(OC(C)CCCCCC/C=C/C(=O)OCCCCCCCCCCCC)OC(COC(C)=O)C(O)C2O)C(O)C1O` (stereo not drawn) [Compound 43], the “change in emulsions during a 6-week aging period” value in series [2] is listed as “no substantial change”. For the same compound, in series [2] (setting [12]), the emulsion type entry is reported as “water-in-oil emulsion” and the “time the emulsion was stable (monitored period)” value is recorded as at least 3 weeks.

In the case of `CCCCCCCCCCCCOS(=O)(=O)[O-].[Na+]` [SDS, Sodium dodecyl sulfate, reference compound], the “emulsion layer, start” value in series [3] (oil/water 7/3, 2%-by-weight, start of aging) came to 90%. In series [3] (paraffin oil/water 5/5, 2%-by-weight emulsifier, after 24 hours at 25° C.), this compound came in with an emulsion layer percentage of 70%. The Average droplet size in series [4] (0.5 weight %, 24 hours) is reported as 2.3 ± 0.2 μm; in series [4] (0.5 weight %, aged 3-months), 3.1 ± 0.1 μm; in series [4] (1 weight %, 24 hours), 2.1 ± 0.1 μm; in series [4] (1 weight %, aged 3-months) it was 2.7 ± 0.1 μm; in series [4] (2 weight %, 24 hours) it was 1.6 ± 0.2 μm; in series [4] (2 weight %, aged 3-months), 2.0 ± 0.1 μm. Moreover, the “Oil displacement activity (diameter of the clearing zone)” value was 0.65 ± 0.21 cm in series [5] (setting [13]), 0.5 ± 0.14 cm in series [5] (Louisiana Crude on sea water) and 1.2 ± 0.42 cm in series [5] (Prudhoe Bay Crude on sea water).

On to Rhamnolipid [reference compound], for which the “Emulsion Droplet Size” value in series [1] (setting [14]) was 379 nm.

Take TWEEN ® 60 [reference compound]: the “Emulsion Droplet Size” value is given as 233 nm in series [1] (lemon oil/water 1/99, sonication 120 sec, 1 Month) and 173 nm in series [1] (setting [14]).

With Triton X-100 [reference compound], the “Oil displacement activity (diameter of the clearing zone)” value in series [5] (setting [13]) came to 6.05 ± 0.07 cm; in series [5] (Louisiana Crude on sea water), 5.5 ± 0.21 cm; in series [5] (Prudhoe Bay Crude on sea water) it was 7.8 ± 0.07 cm. Further, the “Emulsification activity (D610)” value in series [6] (Arabian Crude) was found to be 0.17; in series [6] (Louisiana Crude) it was 0.28; in series [6] (Prudhoe Crude), 0.49.
